Here are results for 34 compounds from patent US20070276011A1, “Plasminogen Activator Inhibitor-1 Inhibitor” (priority 2003, published 2007).

Structures are written as SMILES.

One assay deals with recombinant human PAI-1 (Homo sapiens, UniProt P05121). As to the kind of experiment: PAI-1 inhibitory activity, Test Method A (tPA fluorogenic substrate, Tris buffer pH8.0, 37 C). Type of assay: biochemical. To be noted: 25 μM test compound; Test Method A. As to the method: To this solution, 50 μL solution of 400 μM fluogenic substrate for tPA (Pyr-Gly-Arg-MCA, Peptide Institute, Inc.) adjusted with the same buffer was added, and reacted for 30 minutes at 37° C. The reaction was stopped by adding 50 μL of 2% acetic acid. Fluorescence was measured at the excitation wavelength=360 nm, emission wavelength=460 or 465 nm using a microplate reader (SPECTRAFLUOR or GENios) by TECAN. The fluorescence intensities in the presence of the PAI-1 as the control (DMSO) or in the absence of the PAI-1 (tPA alone) were taken as 100% and 0% of PAI-1 activities, respectively, and inhibitory ratios of PAI-1 activities in the presence of the test compound were obtained.
recombinant human PAI-1, sequence (P05121 24-402): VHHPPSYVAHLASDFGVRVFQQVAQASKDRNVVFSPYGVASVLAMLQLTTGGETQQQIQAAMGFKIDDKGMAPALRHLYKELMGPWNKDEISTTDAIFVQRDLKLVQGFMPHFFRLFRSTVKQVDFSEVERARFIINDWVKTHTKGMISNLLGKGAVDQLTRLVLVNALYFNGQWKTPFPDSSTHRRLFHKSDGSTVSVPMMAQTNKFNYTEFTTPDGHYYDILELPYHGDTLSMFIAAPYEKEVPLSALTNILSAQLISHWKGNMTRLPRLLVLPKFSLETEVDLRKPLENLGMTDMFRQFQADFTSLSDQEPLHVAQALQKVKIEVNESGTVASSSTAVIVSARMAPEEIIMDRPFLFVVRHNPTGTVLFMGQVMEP
<Composition of the Tris Buffer (pH8.0)>
With `COCC1=NN(c2cc(Cl)cc(Cl)c2)C(=O)C1=Cc1ccccc1O` [compound 523], the “Inhibitory Ratio at 25 μM (%)” value is >99%.

For the compound `COc1ccc(COC(=O)c2cc(C=C3SC(=O)N(Cc4ccc(C(F)(F)F)cc4)C3=O)ccc2O)cc1` [compound 387, 5-[4-hydroxy-3-(4-methoxybenzyloxycarbonyl)benzylidene]-3-[4-(trifluoromethyl)benzyl]thiazolidine-2,4-dione], the “Inhibitory Ratio at 25 μM (%)” value amounted to 74%.

As to `COc1cc(C=C2C(=O)N(c3ccc(Cl)c(Cl)c3)N=C2C(C)C)cc([N+](=O)[O-])c1O` [compound 561], the “Inhibitory Ratio at 25 μM (%)” value came out at 91%.

Take `COCC1=NN(c2cc(Cl)cc(Cl)c2)C(=O)C1=Cc1cc(O)c(O)cc1O` [compound 522]: the “Inhibitory Ratio at 25 μM (%)” value is given as >99%.

On to `O=C(Nc1ccc(O)c(O)c1)c1cccc(C=C2SC(=O)N(Cc3ccc(Cl)c(Cl)c3)C2=O)c1` [compound 388, 5-[3-(3,4-Dihydroxyphenylcarbamoyl)benzylidene]-3-(3,4-dichlorobenzyl)thiazolidine-2,4-dione], for which the “Inhibitory Ratio at 25 μM (%)” value was 65%.

On to `O=C(OCc1ccccc1)c1cc(C=C2SC(=O)N(Cc3ccc(Cl)c(Cl)c3)C2=O)cc(-c2ccccc2)c1O` [compound 426, 5-[3-Phenyl-4-hydroxy-5-(benzyloxycarbonyl)benzylidene]-3-(3,4-dichlorobenzyl)thiazolidine-2,4-dione], for which the “Inhibitory Ratio at 25 μM (%)” value was 91%.

In the case of `CCOC(=O)Oc1cc(C=C2SC(=O)N(Cc3ccc(Cl)c(Cl)c3)C2=O)cc(OC(=O)OCC)c1OC(=O)OCC` [compound 340], the “Inhibitory Ratio at 25 μM (%)” value is given as 56%.

As for `COC(=O)c1cc(C=C2SC(=O)N(Cc3ccc(Cl)c(Cl)c3)C2=O)cc(O)c1O` [compound 344], the “Inhibitory Ratio at 25 μM (%)” value is >99%.

On to `O=C1SC(=Cc2ccc(Cl)c(O)c2)C(=O)N1Cc1ccc(Cl)c(Cl)c1` [compound 328], for which the “Inhibitory Ratio at 25 μM (%)” value is 63%.

For `COC(=O)c1cc(C=C2SC(=O)N(Cc3ccc(Cl)c(Cl)c3)C2=O)cc(OC)c1O` [compound 343, 5-[3-methoxy-4-hydroxy-5-(methoxycarbonyl)benzylidene]-3-(3,4-dichlorobenzyl)thiazolidine-2,4-dione], the “Inhibitory Ratio at 25 μM (%)” value is reported as 71%.

`CCOC1=NN(c2ccc([N+](=O)[O-])cc2)C(=O)C1=Cc1c(O)ccc2ccccc12` [compound 546]: the “Inhibitory Ratio at 25 μM (%)” value was found to be 96%.

`CCOC1=NN(c2ccc([N+](=O)[O-])cc2)C(=O)C1=Cc1cc(O)c(O)cc1Br` [compound 557, 4-(2-Bromo-4,5-dihydroxybenzylidene)-1-(4-nitrophenyl)-3-ethoxy-2-pyrazolin-5-one]: the “Inhibitory Ratio at 25 μM (%)” value is listed as 82%.

Turning to `COc1ccc(NC(=O)c2cc(C=C3SC(=O)N(CCc4ccc(Cl)cc4)C3=O)ccc2O)cc1OC` [compound 375, 5-[4-Hydroxy-3-(3,4-dimethoxyphenylcarbamoyl)benzylidene]-3-[2-(4-chlorophenyl)ethyl]thiazolidine-2,4-dione], the “Inhibitory Ratio at 25 μM (%)” value is reported as 63%.

As to `O=C1C(=Cc2cccc(O)c2)C(c2ccc(O)cc2)=NN1c1cc(Cl)cc(Cl)c1` [compound 509, 4-(3-Hydroxybenzylidene)-1-(3,5-dichlorophenyl)-3-(4-hydroxyphenyl)-2-pyrazolin-5-one], the “Inhibitory Ratio at 25 μM (%)” value is >99%.

For `O=C(Nc1cc(F)ccc1F)c1cc(C=C2SC(=O)N(Cc3ccc(Cl)c(Cl)c3)C2=O)ccc1O` [compound 465], the “Inhibitory Ratio at 25 μM (%)” value was 69%.

In the case of `O=C(Nc1ccc(O)c(O)c1)c1cc(C=C2SC(=O)N(Cc3ccc([N+](=O)[O-])cc3)C2=O)ccc1O` [compound 378], the “Inhibitory Ratio at 25 μM (%)” value came to 86%.

As for `COc1cc(Br)cc(C=C2C(=O)N(c3cc(Cl)cc(Cl)c3)N=C2C(C)C)c1O` [compound 528], the “Inhibitory Ratio at 25 μM (%)” value is on record as >99%.

In the case of `COc1ccc(O)c(C=C2C(=O)N(c3ccc(Cl)c(Cl)c3)N=C2C(C)C)c1` [compound 518, 4-(2-hydroxy-5-methoxybenzylidene)-1-(3,4-dichlorophenyl)-3-isopropyl-2-pyrazolin-5-one], the “Inhibitory Ratio at 25 μM (%)” value is recorded as 83%.

As to `O=C1SC(=Cc2ccc([O-])c([O-])c2)C(=O)N1Cc1ccc(Cl)cc1Cl.[Na+].[Na+]` [compound 339], the “Inhibitory Ratio at 25 μM (%)” value is >99%.

The same assay, now with this note: test compound 25 μM; Test Method A.
In the case of `COc1ccc(OC)c(N2C(=O)C(=Cc3ccc(O)c(O)c3)SC2=S)c1` [compound 75, 5-(3,4-Dihydroxybenzylidene)-3-(2,5-dimethoxyphenyl)rhodanine], the “Inhibitory Ratio at 25 μM (%)” value is given as 74%.

Turning to `O=C(O)c1cccc(N2N=C(c3ccccc3)C(=Cc3ccc(-c4cc(C(F)(F)F)cc(C(F)(F)F)c4)o3)C2=O)c1` [compound 217], the “Inhibitory Ratio at 25 μM (%)” value is recorded as >99%.

As to `COC(=O)c1cccc(N2N=C(C(C)C)C(=Cc3cc(Br)cc(Br)c3O)C2=O)c1` [compound 108, 4-(3,5-Dibromo-2-hydroxybenzylidene)-1-[3-(Methoxycarbonyl)phenyl]-3-isopropyl-2-pyrazolin-5-one], the “Inhibitory Ratio at 25 μM (%)” value stood at 27%.

Regarding `COc1cc(CN2C(=O)SC(=Cc3cccc(O)c3O)C2=O)cc(OC)c1` [compound 3, 5-(2,3-Dihydroxybenzylidene)-3-(3,5-dimethoxybenzyl)thiazolidine-2,4-dione], the “Inhibitory Ratio at 25 μM (%)” value is 71%.

With `O=C(O)c1cccc(N2N=C(C(F)(F)F)C(=Cc3ccc(-c4cc(C(F)(F)F)cc(C(F)(F)F)c4)o3)C2=O)c1` [compound 179], the “Inhibitory Ratio at 25 μM (%)” value came out at 62%.

For the compound `O=C1C(=Cc2ccc(Br)o2)C(C(F)(F)F)=NN1c1cccc([N+](=O)[O-])c1` [compound 195], the “Inhibitory Ratio at 25 μM (%)” value worked out at 30%.

`O=C1SC(=Cc2ccc(O)c([N+](=O)[O-])c2)C(=O)N1Cc1ccc(Cl)c(Cl)c1` [compound 85, 5-(4-hydroxy-3-nitrobenzylidene)-3-(3,4-dichlorobenzyl)-thiazolidine-2,4-dione]: the “Inhibitory Ratio at 25 μM (%)” value is on record as >99%.

With `O=C1SC(=Cc2ccc(O)c(O)c2)C(=O)N1Cc1ccc([N+](=O)[O-])cc1` [compound 50, 5-(3,4-Dihydroxybenzylidene)-3-(4-nitrobenzyl)thiazolidine-2,4-dione], the “Inhibitory Ratio at 25 μM (%)” value is 82%.

In the case of `O=C1SC(=Cc2cccc(O)c2O)C(=O)N1Cc1cc(C(F)(F)F)cc(C(F)(F)F)c1` [compound 70], the “Inhibitory Ratio at 25 μM (%)” value is reported as >99%.

Regarding `O=C1SC(=Cc2cc(O)cc(O)c2)C(=O)N1Cc1ccc(Cl)c(Cl)c1` [compound 40], the “Inhibitory Ratio at 25 μM (%)” value is >99%.

Take `CC1=NN(c2cc(Cl)cc(Cl)c2)C(=O)C1=Cc1ccc(O)c(O)c1` [compound 112, 4-(3,4-Dihydroxybenzylidene)-1-(3,5-dichlorophenyl)-3-methyl-2-pyrazolin-5-one]: the “Inhibitory Ratio at 25 μM (%)” value is given as >99%.

Regarding `CC1=NN(c2ccc(Cl)c(Cl)c2)C(=O)C1=Cc1cc(Br)ccc1O` [compound 102], the “Inhibitory Ratio at 25 μM (%)” value came to 63%.

In the case of `O=C1SC(=Cc2ccc(O)c(O)c2)C(=O)N1Cc1cccc(Oc2ccccc2)c1` [compound 17], the “Inhibitory Ratio at 25 μM (%)” value is listed as >99%.

For the compound `O=C1SC(=Cc2cccc(O)c2O)C(=O)N1Cc1ccc(Cl)cc1` [compound 32, 5-(2,3-Dihydroxybenzylidene)-3-(4-chlorobenzyl)thiazolidine-2,4-dione], the “Inhibitory Ratio at 25 μM (%)” value is given as >99%.

Regarding `O=C1SC(=Cc2cc([N+](=O)[O-])ccc2O)C(=O)N1Cc1ccc(Cl)c(Cl)c1` [compound 55], the “Inhibitory Ratio at 25 μM (%)” value was found to be 77%.
